Reference: the NIST ThermoML archive (doi:10.1016/j.jct.2012.07.015)
Numbers after ± are expanded uncertainties.

What was measured:
[1] = for viscosity / mass density: 101.33 kPa; for viscosity / mass density / surface tension liquid-gas: Liquid; for mass density: Vibrating tube method
[2] = Molar enthalpy of transition or fusion; conditions: Crystal; DSC
[3] = molar heat capacity at constant pressure; conditions: 101.33 kPa, Liquid, Small sample (50 mg) DSC

CCCCCC[n+]1ccc(C#N)cc1.O=S(=O)([N-]S(=O)(=O)C(F)(F)F)C(F)(F)F [1-hexyl-4-cyanopyridinium bis(trifluoromethylsulfonyl)imide]
Conditions | Glass transition temperature [°C] | mass density [kg/m3] | molar heat capacity at constant pressure [J/K/mol] | surface tension liquid-gas [mN/m] | viscosity [mPa·s]
[1], 293.15 K | – | 1411.6 ± 1.8 | – | – | 1065.6 ± 130
[1], 298.15 K | – | 1407.1 ± 1.8 | – | 30.6 ± 0.92 | 704.2 ± 76
[1], 303.15 K | – | 1402.6 ± 1.8 | – | – | 481.8 ± 44
[1], 308.15 K | – | 1398.1 ± 1.8 | – | 30.25 ± 0.91 | 340.3 ± 27
[1], 313.15 K | – | 1393.6 ± 1.8 | – | – | 235.8 ± 15
[1], 318.15 K | – | 1389.1 ± 1.7 | – | 29.89 ± 0.9 | 175.4 ± 9.1
[1], 323.15 K | – | 1384.8 ± 1.7 | – | – | 133.3 ± 5.5
[1], 328.15 K | – | 1380.5 ± 1.7 | – | 29.48 ± 0.89 | 103.3 ± 3.2
[1], 333.15 K | – | 1376.1 ± 1.7 | – | – | 81.7 ± 1.8
[1], 338.15 K | – | 1371.8 ± 1.7 | – | 29.01 ± 0.88 | 65.6 ± 1
[1], 343.15 K | – | 1367.5 ± 1.7 | – | – | 53.5 ± 0.6
[1], 348.15 K | – | 1363.2 ± 1.7 | – | – | 44.3 ± 0.6
[1], 353.15 K | – | 1358.9 ± 1.7 | – | – | 37.2 ± 0.5
[1], 358.15 K | – | 1354.6 ± 1.7 | – | – | 31.5 ± 0.4
[1], 363.15 K | – | 1350.3 ± 1.6 | – | – | 26.9 ± 0.4
[1], DTA | -51.9 ± 2 | – | – | – | –
[3], 298.15 K | – | – | 633 ± 64 | – | –
[3], 323.15 K | – | – | 643 ± 65 | – | –
[3], 353.15 K | – | – | 652 ± 66 | – | –

Conditions | Triple point temperature [K]
[1], Crystal, DTA | 280.2 ± 1.1

Conditions | Molar enthalpy of transition or fusion [kcal/mol]
[2] | 4.5 ± 0.139

CCCC[n+]1cccc(C#N)c1.O=S(=O)([N-]S(=O)(=O)C(F)(F)F)C(F)(F)F [1-butyl-3-cyanopyridinium bis(trifluoromethylsulfonyl)imide]
Conditions | Glass transition temperature [°C] | mass density [kg/m3] | molar heat capacity at constant pressure [J/K/mol] | surface tension liquid-gas [mN/m] | viscosity [mPa·s]
[1], 293.15 K | – | 1483.2 ± 12 | – | – | 1546.7 ± 220
[1], 298.15 K | – | 1478.7 ± 12 | – | 32 ± 1.2 | 983.7 ± 120
[1], 303.15 K | – | 1474.2 ± 12 | – | – | 659.7 ± 71
[1], 308.15 K | – | 1469.7 ± 12 | – | 31.77 ± 1.2 | 485.1 ± 46
[1], 313.15 K | – | 1465.3 ± 12 | – | – | 327.5 ± 26
[1], 318.15 K | – | 1460.8 ± 12 | – | 31.59 ± 1.2 | 240.7 ± 16
[1], 323.15 K | – | 1456.3 ± 12 | – | – | 182.6 ± 11
[1], 328.15 K | – | 1452 ± 12 | – | 31.39 ± 1.2 | 140.5 ± 6.9
[1], 333.15 K | – | 1447.7 ± 12 | – | – | 110.1 ± 4.5
[1], 338.15 K | – | 1443.4 ± 11 | – | 31.09 ± 1.2 | 87.9 ± 3
[1], 343.15 K | – | 1439.1 ± 11 | – | – | 67.6 ± 1.9
[1], 348.15 K | – | 1434.8 ± 11 | – | – | 55.3 ± 1.4
[1], 353.15 K | – | 1430.5 ± 11 | – | – | 45.8 ± 1.2
[1], 358.15 K | – | 1426.3 ± 11 | – | – | 38.5 ± 1
[1], 363.15 K | – | 1422 ± 11 | – | – | 32.8 ± 0.9
[1], DTA | -54.4 ± 2 | – | – | – | –
[3], 298.15 K | – | – | 586 ± 59 | – | –
[3], 323.15 K | – | – | 596 ± 60 | – | –
[3], 353.15 K | – | – | 605 ± 61 | – | –
